Key:
Type in all cases: in vivo, rat
[1] = system: rats with controlled cortical impact (CCI) injury; assay: Modified neurological severity score (mNSS) after CCI injury; details: P<0.05
Experimental: A previously described CCI injury procedure was utilized (Chen et al., 2003). Male Sprague-Dawley rats, which have body weight of 250-300 g, were anaesthetized with sodium pentobarbital (i.p.; 50 mgkg^−1; Rhone Merieux, Harlow, UK) and placed in a stereotaxic frame. A 5-mm craniotomy was performed over the left parietal cortex, centered on the coronal suture and 3 mm lateral to the sagittal suture. Considerable care was taken to avoid injury to the underlying dura. Injury was made using a pneumatic piston with a rounded metal tip (2.5 mm diameter) that was angled 22.5° C. to the vertical so that the tip was perpendicular with the brain surface at the centre of the craniotomy. A velocity of 4 ms^−1 and a deformation depth 2 mm below the dura were used. The bone flap was immediately replaced and sealed, and the scalp was closed with sutures. Body temperature was monitored throughout the surgery by a rectal probe; temperature was maintained at 37.0±0.5° C. using a heated pad. Rats were placed in a heated cage to maintain body temperature, while recovering from anaesthesia. Baicalein (30 mg kg^−1) dissolved in 10% dimethyl sulphoxide (0.25-0.3 mL) or a corresponding volume of vehicle (10% dimethyl sulphoxide) was administered i.p. immediately following injury or daily for 4 days (immediately, 25, 49 and 73 h) after injury. Behaviour testing using the rotarod, tactile adhesive removal, mNSS and beam walk tests was performed at […] as well as 4, 7, 14, 21 and 28 days post-injury. At 14 and 28 days, the animals were killed, perfused intravascularly and their brains were processed with cresyl violet staining to assess contusion volume (n=8 for each group). […] Behaviour testing was performed before CCI and at […] after CCI by an observer who was unaware of the experimental treatments. The battery of tests consisted of the rotarod motor test, tactile adhesive-removal somatosensory test, mNSS and beam walk test. […] One point was scored for the inability to perform the test or for the lack of a tested reflex; thus, the higher the score, the more severe the injury. […]

[2] = system: degenerating neurons (FJB-positive cells) in cortical contusion margin; assay: Neuronal degeneration, FluoroJade B (FJB) staining; details: single-dose 30 mg kg^-1 i.p., 1 day post-injury, P<0.05
Experimental: A previously described CCI injury procedure was utilized (Chen et al., 2003). Male Sprague-Dawley rats, which have body weight of 250-300 g, were anaesthetized with sodium pentobarbital (i.p.; 50 mgkg^−1; Rhone Merieux, Harlow, UK) and placed in a stereotaxic frame. A 5-mm craniotomy was performed over the left parietal cortex, centered on the coronal suture and 3 mm lateral to the sagittal suture. Considerable care was taken to avoid injury to the underlying dura. Injury was made using a pneumatic piston with a rounded metal tip (2.5 mm diameter) that was angled 22.5° C. to the vertical so that the tip was perpendicular with the brain surface at the centre of the craniotomy. A velocity of 4 ms^−1 and a deformation depth 2 mm below the dura were used. The bone flap was immediately replaced and sealed, and the scalp was closed with sutures. Body temperature was monitored throughout the surgery by a rectal probe; temperature was maintained at 37.0±0.5° C. using a heated pad. […] Testing after injury was as follows: (1) real-time quantitative RT-PCR analysis for TNF-α, IL-1β and IL-6 mRNA expression at 6 h post-injury (n=7 for each group); (2) FluoroJade B (FJB) staining, TNF-α, IL-1β and IL-6 immunohistochemistry, as well as ELISA at 24 h post-injury to assess degenerative neurons and to determine cytokine expression (n=7 for each group). […]

[3] = system: rats with controlled cortical impact (CCI) injury; assay: Pilot dose-selection studies, behavioural deficits; details: 10 and 30 mg kg^-1 tested, result for 30 mg kg^-1 (unpublished observations)
Experimental: Baicalein (30 mg kg^−1) dissolved in 10% dimethyl sulphoxide (0.25-0.3 mL) or a corresponding volume of vehicle (10% dimethyl sulphoxide) was administered i.p. immediately following injury or daily for 4 days (immediately, 25, 49 and 73 h) after injury. Behaviour testing using the rotarod, tactile adhesive removal, mNSS and beam walk tests was performed at 28 hours as well as 4, 7, 14, 21 and 28 days post-injury. At 14 and 28 days, the animals were killed, perfused intravascularly and their brains were processed with cresyl violet staining to assess contusion volume (n=8 for each group).

O=c1cc(-c2ccccc2)oc2cc(O)c(O)c(O)c12 [baicalein]
mNSS neurological deficit, multiple-dose versus single-dose treatment ([1]; 30 mg kg^-1 i.p., days 4 and 7 after injury): significantly greater reduction | mNSS scores versus vehicle-treated group ([1]; multiple-dose 30 mg kg^-1 i.p. daily for 4 days, days 1-28): significantly less | mNSS scores versus vehicle-treated group ([1]; single-dose 30 mg kg^-1 i.p., days 1-14): significantly less | reduction of the number of FJB-positive cells versus vehicle [2]: 31% | neuroprotective effects in improving behavioural deficits [3]: found to have neuroprotetcive effects
